Laboratory results: patent publication US20210244028A1, “TREATMENT FOR REMOVING ECTOPARASITES FROM FISH” (priority 2018, published 2021)
“And” between values parts separate entries of the source, which are not always exact repeats. Identical values can stand only once.

How the values were obtained:
[1] = tested on: pre-adult and adult sea lice; assay: Timescale of effect on sea lice on killed salmon suspended in treatment water (Example 5)
Protocol: To determine the timescale of the effect of imidacloprid, salmon infected with pre-adult and adult sea lice were removed from a stock tank and killed using a sharp blow to the head.
For fish exposed to 0 ppm imidacloprid (negative controls), observations were made for 60 minutes. […] Three fish per treatment group were tested.
Observations on the time at which lice left the host, and the sex and stage of the sea louse was noted. Any lice that left the host were transferred to clean sea water immediately. Furthermore, any lice remaining on the host at the end of the exposure period were removed from the host and transferred to clean sea water.
Lice were observed both shortly after and approximately 2 hours after the end of the exposure period.
The ratio of male to female sea lice was around 50:50. The water temperature was around 12° C.

Lepeophtheirus salmonis = assay: Relative efficacy study, 60 min static bucket treatment of infected salmon (Example 2.2); format: in vivo
Protocol: 120 salmon fish (Salmo salar) were divided across five flow-through treatment tanks and acclimated for 24 hours prior to parasite challenge.
Egg strings removed from ovigerous female Lepeophtheirus salmonis were collected and cultured until infective copepodids were produced. The copepodids were then evenly distributed into five bottles containing sea water and stored at ˜10° C. overnight. In preparation for the challenge, water flows in the treatment tanks were stopped and light levels reduced. 650±20 copepodids (˜27 per host) were added to the static water and the tanks maintained in total darkness for 7 hours after which light levels were raised and the water flow resumed.
Fish were randomly divided into ten groups of ten fish and held in static ‘treatment buckets’ containing 30 L of water and high aeration as shown in Table 3. […]
Experimental animals were monitored closely for adverse reactions and the status of the parasite infection. Where possible the time at which all parasites were thought to have detached was recorded. As treatments were performed in static systems, temperature and dissolved oxygen were regularly monitored throughout the procedure and aeration adjusted as required.
After the treatment period, the test animals were removed from the treatment solution and humanly euthanised. Each fish was weighed, measured, and its individual parasite burden assessed. The number of parasites in the treatment solution was also counted and qualitatively assessed for: sex and maturity, apparent signs of neonicotinoid poisoning, and/or potential recovery.
Logistic regression was used to compare parasite clearance after treatment with each of the concentration. Logistic regression analyses were performed using the glm function in R v.2.13.0 and assumed a binomial or quasi-binomial error distribution (determined through the comparison of the null deviance with the degrees of freedom).

Atlantic salmon = assay: Fish mortality and behaviour during bath treatment (Example 7); format: in vivo; conditions: 20 ppm to 200 ppm, 3 to 60 minutes
Protocol: To determine the concentration- and time-dependence of imidacloprid treatment in vivo, Atlantic salmon (average of 320.9 g) were challenged with imidacloprid in seawater ([…] salinity) at 12° C. The water level in the tank was lowered and aeration was employed during administration of the active. The salmon louse copepodid culture was counted and adjusted to obtain a target level of around 40 copepodids per fish in the challenge tank at each challenge time point.
Fish behaviour/appearance was assessed in vivo during each test. Any changes in behaviour and/or appearance including mortality were recorded.

[2] = tested on: azamethiphos- and deltamethrin-resistant sea lice; assay: In vitro bath exposure of isolated sea lice (Example 6); conditions: 60 minutes exposure; for % effect: registered approx. 20 h after end of exposure
Protocol: A trial was performed to ensure there was no cross-resistance between azamethiphos- and deltamethrin-resistant sea lice and neonicotinoids. Both pre-adult and adult stages (mobile stages) of both sexes were used, and they were equally distributed among groups. The sea lice were exposed to imidacloprid for 60 minutes, azamethiphos for 60 minutes and deltamethrin for 30 minutes in one litre baths at a range of concentrations (Tables 6, 7 and 8). The sea lice were transferred to clean aerated seawater after treatment. The temperature of the seawater during the experiment was 12° C., but during exposure the temperature raised to approx. 14° C. in regimes exposed for 60 min. (imidacloprid and azamethiphos) and to 13° C. for the regime exposed in 30 minutes (deltamethrin).
The numbers of live and immobilised (including killed) lice in each regime were registered approximately 20 h after end of exposure. Each louse was individually investigated.

L. salmonis = assay: Field well boat treatment, pre- vs post-treatment sea lice counts (Example 4); format: in vivo; conditions: 20 ppm, 60 minutes, 30 fish per pen, within 24 hours after treatment, pens A-D
Protocol: The effectiveness of imidacloprid against pre-adult and adult stages of L. salmonis and Caligus sp. infections on farmed Atlantic salmon was investigated by performing pre- and post-treatment sea lice counts on salmon undergoing a treatment with imidacloprid. This trial was conducted at a commercial salmon farm in Norway. The salmon were pumped onto a well boat and were exposed to 20 ppm imidacloprid for 60 minutes. The average weight of the salmon was 3.5 kg and the average number of salmon per pen was 180,000. 30 fish per pen were assessed for L. salmonis and Caligus sp., and the number of each L. salmonis life stage found was recorded. This was performed within 24 hours prior to treatment, and within 24 hours after treatment.
These assessments were made on four pens of salmon in total. Prior to treatment, fish were crowded within the pen to enable them to be pumped into the well boat, which is where the pre-treatment sea lice assessments were conducted. The post-treatment sea lice assessments were made by removing fish from the outflow pipe on the well boat.
At all time points, 3 fish were removed and placed into an anaesthetic bath. This was repeated 10 times until 30 fish had been assessed.
The numbers of sea lice observed per fish for this trial for each of the four tested pens according to sea lice life cycle state, pre- or post-administration of active are presented in Table 5.

fish = assay: Safety of imidacloprid treatment on fish (Example 8); format: in vivo; conditions: 65 ppm
Protocol: The safety of the imidacloprid treatment on fish was assessed. Fish held in a flow through tank containing 271.8 L of sea water were exposed to 65 ppm w/v of the active ingredient imidacloprid. 17.67 g of imidacloprid was dissolved in 100 ml of dimethyl sulfoxide (DMSO) and the solution was added to approximately 900 ml sea water and mixed. The flow on the through tank was disabled and the solution of imidacloprid was added.
The fish were exposed to 65 ppm imidacloprid in static water for 1 hour and observed for behavioural changes at 5-10 minute intervals. The fish were then held for a further 7 days before being terminated.

O=[N+]([O-])NC1=NCCN1Cc1ccc(Cl)nc1 [imidacloprid]
Lice considered dead at 30 minutes post-exposure ([1]; 20 mg/L, of 49 lice exposed): two | Lice considered dead at 2 hours p.e. ([1]; 50 ppm): 14 | Lice considered dead at 30 minutes ([1]; 50 ppm, of 21 lice exposed): four | Lice considered dead at 2 hours p.e. ([1]; 100 ppm): 17/28 | Lice considered dead at the end of the exposure period ([1]; 100 ppm, of 28 lice exposed): four | Lice considered dead 2 hours post-exposure ([1]; 200 ppm, of 26 lice exposed): Six | Lice considered dead at the end of the exposure period ([1]; 200 ppm, of 26 lice exposed): four | Lice considered dead 30 minutes p.e. ([1]; 500 ppm): Six out of 20 | Lice considered dead at 2 hours p.e. ([1]; 500 ppm): 15/20 | Lice that left the host within the first 9 minutes ([1]; 500 ppm, dead host, around 12° C.): around 70% | Lice that left the host within the first 15 minutes ([1]; between 20 and 200 ppm, dead host, around 12° C.): around 50% | Parasites remained attached to their hosts at the sampling point (Lepeophtheirus salmonis; 10 mg/l): 20% | Parasites remained attached to their hosts at the sampling point (Lepeophtheirus salmonis; 25 mg/l): 3% | Parasites remained attached to their hosts at the sampling point (Lepeophtheirus salmonis; 15 and 20 mg/l): 8% | Fish mortality in the trial (Atlantic salmon): No fish died | % effect ([2]; 5 ppm): 30% | % effect ([2]; 10 ppm): 40% and 50% | % effect ([2]; 15 ppm): 100% | % effect ([2]; 20 ppm): 100% | % effect ([2]; 30 ppm): 100% | estimated EC50 value ([2]; immobilisation approx. 20 h after exposure): 7.6 ppm | Post-treatment sea lice count, Adult Female (L. salmonis): 0.0 sea lice per fish | Post-treatment sea lice count, Adult Male (L. salmonis): 0.0 sea lice per fish | Post-treatment sea lice count, Gravid Female (L. salmonis): 0.0 sea lice per fish | Post-treatment sea lice count, Pre-Adult Female (L. salmonis): 0.0 sea lice per fish | Post-treatment sea lice count, Pre-Adult Male (L. salmonis): 0.0 sea lice per fish | Post-treatment sea lice count, Total (L. salmonis): 0.0 sea lice per fish | Adverse reactions during a further 7 days (fish; 1 hour exposure, 7 days monitoring): no adverse reactions | External pathologies on termination (fish; 1 hour exposure, terminated after 7 days): no external pathologies | Fish behaviour during the exposure period (fish; static water, 1 hour): No observable changes in fish behaviour
